This passage reports Kb results from patent US5376748A, “Nitroquinolone derivatives” (Merck Sharp & Dohme Limited, priority 1992, dated 1994).

The test system of this test is AMPA receptor. Briefly: rat cortical slice, responses to AMPA (apparent equilibrium constant from righthand shift in concentration-response curve). Type of test: cell-based. The following applies: righthand shift in the AMPA concentration-response curve. The protocol:
The compounds useful in this invention potently and selectively block responses to NMDA and/or AMPA in a brain slice from rat cortex, and inhibit the binding of agonists and antagonists to the strychnine-insensitive site present on the NMDA receptor and/or AMPA binding to rat forebrain membranes.
The effects of compounds of the invention on responses to NMDA and AMPA were assessed using the rat cortical slice as described by Wong et al., Proc. Natl. Acad. Sci. USA, 1986, 83, 7104. The apparent equilibrium constant (Kb) was calculated from the righthand shift in the NMDA or AMPA concentration-response curves produced by the compound under test.

For `O=C1Nc2cc(Cl)ccc2CC1[N+](=O)[O-]` (stereo not shown) [Example 2, 7-Chloro-3-nitro-3,4-dihydroquinolin-2-one], the Kb was below 150 µM.
